According to ChEMBL document CHEMBL1201862, “PubChem BioAssay data set” (2004):
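A five-concentration, 48-hour dose response in 96-well plates underlies each endpoint, interpolated linearly between surrounding concentrations. GI50 = concentration required for 50% inhibition of growth.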 Active and inactive are the calls of the source. No stated cut-off is given here; in the data, active = GI50 up to about 1.1 µM and inactive = higher.

What was measured:
Assay in all cases: growth of human tumour cells (NCI), 48 h
M19-MEL = tested on: M19-MEL
KM-20L2 = tested on: KM-20L2
DLD-1 = tested on: DLD-1
DMS-273 = tested on: DMS-273
HOP-18 = tested on: HOP-18
DMS-114 = tested on: DMS-114
RXF 631 = tested on: RXF 631
LXFL 529 = tested on: LXFL 529
XF498 = tested on: XF498

Measured: GI50

CCCCCCCCCCCCOC(=S)NCCCC
inactive: M19-MEL 32.7 µM | KM-20L2 18.7 µM | DLD-1 29.4 µM | DMS-273 18.3 µM | HOP-18 28.1 µM | DMS-114 19.7 µM | RXF 631 20.7 µM | LXFL 529 28.1 µM | XF498 16.4 µM

CCOC(=O)[C@@]1(C)C=C2O[C@@H]3OC4(CCCCC4)O[C@@H]3C2=C2C(O)=CC=C(O)[C@]21C(=O)OC
inactive: M19-MEL > 68.1 µM | KM-20L2 > 68.1 µM | DLD-1 > 68.1 µM | DMS-273 > 68.1 µM | HOP-18 > 68.1 µM | DMS-114 > 68.1 µM | RXF 631 > 68.1 µM | LXFL 529 > 68.1 µM | XF498 > 68.1 µM

Nc1nc(-c2ccc(Cl)c([N+](=O)[O-])c2)cs1
inactive: M19-MEL > 100 µM | KM-20L2 > 100 µM | DLD-1 > 100 µM | DMS-273 > 100 µM | HOP-18 35.4 µM | DMS-114 64.7 µM | RXF 631 > 100 µM | LXFL 529 > 100 µM | XF498 27.5 µM

C/C=C/C[C@@H](C)[C@@H](O)[C@H]1C(=O)N[C@@H](CC)C(=O)N(C)CC(=O)N(C)[C@@H](CC(C)C)C(=O)N[C@@H](C(C)C)C(=O)N(C)[C@@H](CC(C)C)C(=O)N[C@@H](C)C(=O)N[C@H](C)C(=O)N(C)[C@@H](CC(C)C)C(=O)N(C)[C@@H](CC(C)C)C(=O)N(C)[C@@H](C(C)C)C(=O)N1C [CYCLOSPORINE]
inactive: M19-MEL 2.37 µM | KM-20L2 2.97 µM | DLD-1 5.32 µM | DMS-273 4.7 µM | HOP-18 11.1 µM | DMS-114 3.7 µM | RXF 631 1.98 µM | LXFL 529 6.89 µM | XF498 3.96 µM
